Measurements taken from US10173974B1, “Natural product-based synthesis of novel anti-infective isothiocyanate- and isoselenocyanate-functionalized amphilectane diterpenes” (priority 2015, dated 2019).
In brackets after ≈: the same amount, converted by molar mass. Read-outs that look alike come from different tables or passages of the source.

Key:
[1] = tested on: Vero cell line ATCC CRL-1586
Mtb H37Rv (ATCC 27 294) = assay: Microplate Alamar blue assay (MABA), antitubercular activity; type: cell-based, Mycobacterium tuberculosis; details: for MABA MIC: Mtb H37Rv
[2] = tested on: P. falciparum Dd2 (drug resistant); assay: SYBR Green parasite proliferation assay, P. falciparum Dd2 strain; type: cell-based, Plasmodium falciparum
[3] = tested on: P. falciparum 3D7 (chloroquine-sensitive); assay: SYBR Green parasite proliferation assay, P. falciparum 3D7 strain; type: cell-based, Plasmodium falciparum
in vitro = details: African green monkey
[4] = P. falciparum Dd2 (drug resistant), 72 h incubation, in vitro growth inhibition
[5] = P. falciparum 3D7 (chloroquine-sensitive), 72 h incubation, in vitro growth inhibition

In the case of “8-Isothiocyano-15-isoselenocyano-11(20)-amphilectene (3) and 8-Isoselenocyano-15-isothiocyano-11(20)-amphilectene (4) [Compound 3 and 4]”, the CC50 [1] is reported as 78100 nM.
For `[C-]#[N+]C(C)(C)CC1CC(C)C2CCC(C)C3([N+]#[C-])CCC(=C)C1C23` (single isomer, unassigned; (-)) [Compound 1, (−)-8,15-diisocyano-11(20)-amphilectene, reference compound], the “MABA MIC” value (Mtb H37Rv (ATCC 27 294)) was 9.8 µM, the IC50 [2, 4] was 3.1 nM and the IC50 [3, 5] was 1.2 nM.
Work on `CCN(CC)CCCC(C)Nc1ccnc2cc(Cl)ccc12` (centres unmarked) [CQ, chloroquine, reference compound] yielded an IC50 ([2]; Plasmodium falciparum, P. falciparum Dd2 (drug resistant), 72 h incubation, in vitro growth inhibition) of 51.9 nM and an IC50 ([3]; Plasmodium falciparum, P. falciparum 3D7 (chloroquine-sensitive), 72 h incubation, in vitro growth inhibition) of 10.9 nM.
For `C=C1CC[C@@]2(N=C=S)[C@H]3[C@H](CC[C@@H]2C)[C@@H](C)C[C@@H](CC(C)(C)N=C=S)[C@H]13` [Compound 2, 8,15-Diisothiocyano-11(20)-amphilectene], the “MABA MIC” value (Mtb H37Rv (ATCC 27 294)) was 99.1 µM, the IC50 [2, 4] was 11600 nM and the IC50 [3, 5] was 11800 nM.
For `C=C1CC[C@@]2(N=C=[Se])[C@H]3[C@H](CC[C@@H]2C)[C@@H](C)C[C@@H](CC(C)(C)N=C=[Se])[C@H]13` [Compound 5, 8,15-Diisoselenocyano-11(20)-amphilectene], the “MABA MIC” value (Mtb H37Rv (ATCC 27 294)) was 3.9 µM, the IC50 [2, 4] was 6.6 nM and the IC50 [3, 5] was 2.5 nM.
In the case of `C=C(C)C[C@@H]1C[C@H](C)[C@H]2CC[C@H](C)[C@@]3(N=C=[Se])CCC(=C)[C@@H]1[C@H]23` [Compound 6, 8-Isoselenocyanoamphilecta-11(20),15-diene], the “MABA MIC” value (Mtb H37Rv (ATCC 27 294)) is reported as 2.1 µM, the IC50 [2] is reported as 149 nM and the IC50 [3] is reported as 188 nM.
With `CO[C@H]1/C=C/O[C@@]2(C)Oc3c(C)c(O)c4c(O)c(c(/C=N/N5CCN(C)CC5)c(O)c4c3C2=O)NC(=O)/C(C)=C\C=C\[C@H](C)[C@H](O)[C@@H](C)[C@@H](O)[C@@H](C)[C@H](OC(C)=O)[C@@H]1C` [RMP, rifampicin, reference compound] the MIC (Mtb H37Rv (ATCC 27 294); Mycobacterium tuberculosis, read-out: MABA MIC) was 0.09 µM (≈ 0.0741 µg/mL) and the CC50 (in vitro) was over 100000 nM.
